Experimental data taken from patent US20210338846A1, “COMPETITIVE PROSTATE-SPECIFIC MEMBRANE ANTIGEN (PSMA) BINDING AGENTS FOR REDUCTION OF NON-TARGET ORGAN UPTAKE OF RADIOLABELED PSMA INHIBITORS FOR PSMA POSITIVE TUMOR IMAGING AND RADIOPHARMACEUTICAL THERAPY” (The Johns Hopkins University, priority 2018, published 2021).
Like-named read-outs stand apart in the source and are kept apart here.

Columns and labels:
[1] = tested on: PSMA+ PC-3 PiP and PSMA− PC-3 flu tumors; assay type: in vivo; details: early time points
[2] = tested on: PSMA+ PC-3 PiP and PSMA− PC-3 flu tumors
[3] = 1 h, co-injection 0.5 nmole YC-I-27
[4] = 4 h, co-injection 0.5 nmole YC-I-27
[5] = 24 h, co-injection 0.5 nmole YC-I-27

Structure (SMILES): O=C(O)CC[C@H](NC(=O)N[C@@H](CCCCN(Cc1ccc(I)cc1)C(=O)CCCCNC(=O)CN1CCN(CC(=O)O)CCN(CC(=O)O)CCN(CC(=O)O)CC1)C(=O)O)C(=O)O [VK-02-90]
- effect of competing inhibitor on uptake of [125I]VK-02-90-Lu in kidneys, salivary glands and lacrimal glands [1]: effective CI

Structure (SMILES): O=C([O-])CN1CCN(CC(=O)[O-])CCN(CC(=O)NCCCCC(=O)N(CCCC[C@H](NC(=O)N[C@@H](CCC(=O)O)C(=O)O)C(=O)O)Cc2ccc([211At])cc2)CCN(CC(=O)[O-])CC1.[Lu+3] [[^211At]VK-02-90-Lu]
- Biodistribution: Blood ([2]; 1 h, No CI): 0.8 ± 0.2 % injected dose/gram
- Biodistribution: Flu tumor ([2]; 1 h, No CI): 0.4 ± 0.2 % injected dose/gram
- Biodistribution: Lacrimal gland ([2]; 1 h, No CI): 0.8 ± 0.9 % injected dose/gram
- Biodistribution: PiP tumor ([2]; 1 h, No CI): 31 ± 5 % injected dose/gram
- Biodistribution: Salivary gland ([2]; 1 h, No CI): 0.5 ± 0.2 % injected dose/gram
- Biodistribution: kidneys ([2]; 1 h, No CI): 90 ± 43 % injected dose/gram
- Biodistribution: spleen ([2]; 1 h, No CI): 2.5 ± 0.9 % injected dose/gram
- Biodistribution: stomach ([2]; 1 h, No CI): 0.4 ± 0.1 % injected dose/gram
- Biodistribution: Blood [2, 3]: 0.5 ± 0.1 % injected dose/gram
- Biodistribution: Flu tumor [2, 3]: 0.4 ± 0.1 % injected dose/gram
- Biodistribution: Lacrimal gland [2, 3]: 0 % injected dose/gram
- Biodistribution: PiP tumor [2, 3]: 25 ± 4 % injected dose/gram
- Biodistribution: Salivary gland [2, 3]: 0.4 ± 0.2 % injected dose/gram
- Biodistribution: kidneys [2, 3]: 2.2 ± 0.6 % injected dose/gram
- Biodistribution: spleen [2, 3]: 0.3 ± 0.4 % injected dose/gram
- Biodistribution: stomach [2, 3]: 0.4 ± 0.2 % injected dose/gram
- Biodistribution: Blood ([2]; 4 h, No CI): 0.1 ± 0.03 % injected dose/gram
- Biodistribution: Flu tumor ([2]; 4 h, No CI): 0.1 ± 0.1 % injected dose/gram
- Biodistribution: Lacrimal gland ([2]; 4 h, No CI): 0.3 ± 1.1 % injected dose/gram
- Biodistribution: PiP tumor ([2]; 4 h, No CI): 17 ± 5 % injected dose/gram
- Biodistribution: Salivary gland ([2]; 4 h, No CI): 0.2 ± 0.1 % injected dose/gram
- Biodistribution: kidneys ([2]; 4 h, No CI): 2.1 ± 0.6 % injected dose/gram
- Biodistribution: spleen ([2]; 4 h, No CI): 0 % injected dose/gram
- Biodistribution: stomach ([2]; 4 h, No CI): 0.3 ± 0.2 % injected dose/gram
- Biodistribution: Blood [2, 4]: 0.2 ± 0.1 % injected dose/gram
- Biodistribution: Flu tumor [2, 4]: 0.0 ± 0.04 % injected dose/gram
- Biodistribution: Lacrimal gland [2, 4]: 0 % injected dose/gram
- Biodistribution: PiP tumor [2, 4]: 19 ± 5 % injected dose/gram
- Biodistribution: Salivary gland [2, 4]: 0.3 ± 0.2 % injected dose/gram
- Biodistribution: kidneys [2, 4]: 0.7 ± 0.1 % injected dose/gram
- Biodistribution: spleen [2, 4]: 0.8 ± 0.5 % injected dose/gram
- Biodistribution: stomach [2, 4]: 0.4 ± 0.05 % injected dose/gram
- Biodistribution: Blood ([2]; 24 h, No CI): 0 % injected dose/gram
- Biodistribution: Flu tumor ([2]; 24 h, No CI): 0 % injected dose/gram
- Biodistribution: Lacrimal gland ([2]; 24 h, No CI): 0 % injected dose/gram
- Biodistribution: PiP tumor ([2]; 24 h, No CI): 9.5 ± 1.0 % injected dose/gram
- Biodistribution: Salivary gland ([2]; 24 h, No CI): 0 % injected dose/gram
- Biodistribution: kidneys ([2]; 24 h, No CI): 0.02 ± 0.02 % injected dose/gram
- Biodistribution: spleen ([2]; 24 h, No CI): 0 % injected dose/gram
- Biodistribution: stomach ([2]; 24 h, No CI): 0 % injected dose/gram
- Biodistribution: Blood [2, 5]: 0.03 ± 0.3 % injected dose/gram
- Biodistribution: Flu tumor [2, 5]: 0.2 ± 0.3 % injected dose/gram
- Biodistribution: Lacrimal gland [2, 5]: 0 % injected dose/gram
- Biodistribution: PiP tumor [2, 5]: 18 ± 8 % injected dose/gram
- Biodistribution: Salivary gland [2, 5]: 0 % injected dose/gram
- Biodistribution: kidneys [2, 5]: 0.4 ± 0.5 % injected dose/gram
- Biodistribution: spleen [2, 5]: 02.5 ± 4.3 % injected dose/gram
- Biodistribution: stomach [2, 5]: 0.4 ± 0.7 % injected dose/gram
